Source: patent publication US7183075B2, “Purified and isolated potassium-chloride cotransporter nucleic acids and polypeptides and therapeutic and screening methods using same” (Vanderbilt University, priority 2000, dated 2007)
Where two headings read alike, the source gives them in different places.

Target: T1, hKCC3a (Homo sapiens, UniProt Q9UHW9, L346X/L35X/L789X)
T1 construct: A full-length hKCC3a construct has also been generated for functional expression; expressed in transfected cells; host or cells: Xenopus laevis oocytes injected with cRNA
T1 sequence (Q9UHW9 1-1150 L35X/L346X/L789X): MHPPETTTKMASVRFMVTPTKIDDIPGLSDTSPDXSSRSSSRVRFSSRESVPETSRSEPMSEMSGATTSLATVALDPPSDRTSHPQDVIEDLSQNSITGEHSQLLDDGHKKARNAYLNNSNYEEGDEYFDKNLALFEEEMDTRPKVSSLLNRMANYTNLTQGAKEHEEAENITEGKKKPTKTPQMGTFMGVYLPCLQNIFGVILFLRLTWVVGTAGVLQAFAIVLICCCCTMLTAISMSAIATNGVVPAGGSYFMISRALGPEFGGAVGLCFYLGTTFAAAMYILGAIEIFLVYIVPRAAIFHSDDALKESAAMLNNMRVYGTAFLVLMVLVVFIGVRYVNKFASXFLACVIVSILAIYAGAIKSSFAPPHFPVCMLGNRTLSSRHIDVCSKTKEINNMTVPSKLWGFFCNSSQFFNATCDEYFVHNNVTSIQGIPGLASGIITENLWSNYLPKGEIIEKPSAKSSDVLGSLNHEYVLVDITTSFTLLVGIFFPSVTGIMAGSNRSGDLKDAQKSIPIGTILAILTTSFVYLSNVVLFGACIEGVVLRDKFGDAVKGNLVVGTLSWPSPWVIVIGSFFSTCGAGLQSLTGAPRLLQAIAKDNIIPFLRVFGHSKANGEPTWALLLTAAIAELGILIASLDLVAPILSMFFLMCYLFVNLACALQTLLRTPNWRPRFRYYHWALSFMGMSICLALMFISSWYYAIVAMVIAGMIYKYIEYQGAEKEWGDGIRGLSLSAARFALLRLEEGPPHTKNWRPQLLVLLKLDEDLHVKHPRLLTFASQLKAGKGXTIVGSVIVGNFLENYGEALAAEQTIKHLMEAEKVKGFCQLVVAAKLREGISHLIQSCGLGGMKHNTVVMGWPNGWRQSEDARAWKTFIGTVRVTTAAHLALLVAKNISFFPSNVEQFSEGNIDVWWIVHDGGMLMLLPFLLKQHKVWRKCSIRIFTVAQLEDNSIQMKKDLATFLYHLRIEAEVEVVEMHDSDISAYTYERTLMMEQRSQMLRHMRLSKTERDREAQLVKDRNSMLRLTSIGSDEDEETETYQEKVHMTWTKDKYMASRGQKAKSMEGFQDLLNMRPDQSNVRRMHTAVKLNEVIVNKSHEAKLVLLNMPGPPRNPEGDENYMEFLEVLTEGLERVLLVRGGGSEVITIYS
Assay: 86Rb+ uptake (K+-Cl- cotransport) in Xenopus oocytes injected with hKCC3a cRNA
Type: cell-based
Conditions: for Km: KCC3

[K+] [Potassium]
Km (read-out: Potassium Km): 51.9 mM

Cl [Chloride]
Km (read-out: Chloride Km): 14.2 mM

HgCl2 [Hg—Cl2]
response of KCC3a to mercury (50 μM HgCl2, hypotonic): resistant
